Experiments:
[1] = system: transplanted colon cancer; assay: Comparison of natural and unnatural CH2 FH4 diastereomers in rats bearing transplanted colon cancer; type: in vivo, rat; details: 15 mg/kg, Day 17, no fluorinated pyrimidine
Source text: A study has been completed, for comparison of natural (6R)-CH2 FH4 and unnatural (6S)-CH2 FH4 diastereomers. The preparation of the two forms was done as described by Kisliuk, et al., Cancer Treat. Rep. 61:647-50 (1977), using DEAE-cellulose column chromatography, with elution by potassium bicarbonate buffer. The two separate major peaks were individually pooled, lyophilized to dryness, and used for injection. As in the original detailed description of the method of Kisliuk, et al. (Biochem. 20:929-934), the methylene content was substoichiometric with tetrahydrofolate (FH4). That is, methylene units were present in apparently lower concentration than FH4 concentrations.
Rats bearing the transplanted colon cancer, as described in Example 4 and in Carlsson, et al., Anticancer. Res. 10:813-816, 1991, were treated with either the (6R)-CH2 FH4 or the (6S)-CH2 FH4, formulated and injected according to the methods described in Table IV, except that the injected amounts were 15 mg/kg per dose.
At Day 17, the rats were sacrificed, and the tumors were measured for both volume end weight. Volumes were calculated by the equation for an ellipsoid in revolution, V=(4/3)πab^2 were a=the long diameter/2 and b=the perpendicular short diameter/2.
The filled circles are the weights and volumes of tumors of rats treated with the unnatural (6S)-CH2 FH4 diastereomer (mostly (6R)-FH4 material in dilute solution and blood); the triangles are results for the natural (6R)-CH2 FH4 (mostly (6S)-FH4); and the open circles, control non-treated tumors. It is emphasized here that no fluorinated pyrimidine was used, just the folate injections.

[2] = system: CCRF-CEM cells; assay: Intracellular CH2 FH4 and FH4 levels in CCRF-CEM cells after exposure to 10 μM folate; type: cell-based, human; details: for Intracellular FH4: control 3.08
Source text: In further support of the hypothesis that objectives of CH2 FH4 administration are increases in FH4 and FH4 /CH2 FH4 values, are the results of a cell culture study, shown in Table VI, comparing the relative effectiveness of different folate forms on assayed intracellular levels of the two folates.

[3] = target: T1, L. casei TS-[3H]FdUMP (Lacticaseibacillus casei, UniProt P00469); assay: TS-[3H]FdUMP-folate ternary complex binding assay
T1 sequence (P00469 1-316): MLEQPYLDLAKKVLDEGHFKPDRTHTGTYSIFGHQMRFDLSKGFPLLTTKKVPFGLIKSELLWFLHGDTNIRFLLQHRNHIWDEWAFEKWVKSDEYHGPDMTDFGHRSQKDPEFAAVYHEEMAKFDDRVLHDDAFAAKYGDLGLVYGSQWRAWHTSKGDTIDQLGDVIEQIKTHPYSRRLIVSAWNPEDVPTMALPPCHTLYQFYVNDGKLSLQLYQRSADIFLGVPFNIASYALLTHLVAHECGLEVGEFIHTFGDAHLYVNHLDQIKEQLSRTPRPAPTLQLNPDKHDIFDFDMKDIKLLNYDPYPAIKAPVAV
Experimental: The CH2 FH4 was prepared as the racemic (6R, S) material from (6R, S)-FH4 and excess formaldehyde, and DEAE-column isolation as described in FIG. 1. This preparation was essentially free of free formaldehyde based on colorimetric assay of bulk material (Nash, Biochem. J. 55:416-21 (1953)).
At all concentrations (total assays volume 150 μl ), excess formaldeyde was required to obtain maximal binding (which was still only 19.3% of stoichiometric binding). A notable effect was the increasing need for formaldehyde addition with increasing dilution, to obtain maximal CH2 FH4 assay recovery.
TS[^3 H]FdUMP-folate ternary complex formation without formaldehyde
addition was 38.5% of the value for the natural (6R)CH2 FH4 wit
6 mM formaldehyde added. (About 1 pmole of parent CH2 FH4 was
^b Only 11.8 ± 7.9% of maximal L. casei TS[^3 H]FdUMP-folate
ternary complex formation (using 6 mM formaldehyde concentration) which i
The unnatural diastereomer, (6S)-CH2 FH4 prepared by DEAE-column,potassium bicarbonate separation from the natural diasteromer as described in Example 8, was dissolved in 0.2M Tris-HCl buffer, pH 7.0, containing sodium ascorbate (100 mM) and 2-mercaptoethanol. This preparation was from the same lot of material described in Example 8. As noted in the footnote of Table VII, in the absence of supplemental formaldehyde, the yield of dextrancharcoal isolated complex was 38.5% of the value for the natural (6R)-CH2 FH4 (with added 6 mM formaldehyde).

[4] = system: thymidylate synthase (TS); assay: TS level in serial tumor biopsies, patient one (rectal adenocarcinoma), [6-3H]FdUMP ligand-binding assay; type: in vivo, human
Experimental: CH2 FH4 was formulated, assayed, and administered to 2 patients who had previously been treated with 5-FU. The assays were performed by the methods described in Spears et al., Adv. Exp. Med. Biol. 244:98-104 (1988). In the data shown, the TS inhibition profiles that resulted from CH2 FH4 administration were not due to concurrent 5-FU dosing. The most recent exposure to 5-FU in these cases was slightly greater than a week prior to the study date, with the patients eligible, however, from the standpoint of toxicity evaluation to receive the weekly dose of 5-FU. Thus, residual FdUMP levels from previous exposure, below the detectable limits for assay, were expected to be present (See spears et al. Mol. Pharmacol. 27:302-07 (1985)). The serial biopsies were done following single dose administration of CH2 FH4.
The formulation of CH2 FH4 was as described in Example 2, and was performed on the day of CH2 FH4 administration. The assays were also performed on the day of CH2 FH4 administration.
^a On Week #1 the CH2 FH4 was formulated at pH 2.0,
DEAEpurified; On Week #2 the preparation was pH 9.0, with 6 mM (final
concentration) CH2 O added, no DEAE step used.
^c By [6^3 H]FdUMP ligandbinding assay (Spears et al., Cancer Res
In patient one, a person with locally unresectable advanced rectal adenocarcinoma, the TS pharmacodynamic tumor tissue analyses were done twice, nine days apart. Following study, the person continued to receive intermittent bolus 5-FU. […] There were modifications of the CH2 FH4 formulation between the 2 pharmacodynamic studies (See Table III). In the first study week, the pH was not adjusted up from 2.0, after DEAE column isolation of the Sigma (6R,S)-CH2 FH4. Thus, some of this folate may also have been 5,10-methenyl-tetrahydrofolate. In the second study week, the pH was adjusted up to 9.0, and no DEAE step was used (with therefore 6 mM formaldehyde being present in the 40-cc volume for injection).

[5] = system: thymidylate synthase (TS); assay: TS level in serial tumor biopsies, patient three (skin metastasis from gastric carcinoma), [6-3H]FdUMP ligand-binding assay; type: in vivo, human; details: for TS, % of Baseline / Thymidylate synthase (TS): 30 mg IV; for Thymidylate synthase (TS): baseline 1.31
Experimental: The assays were performed by the methods described in Spears et al., Adv. […] The serial biopsies were done following single dose administration of CH2 FH4.
The assays were also performed on the day of CH2 FH4 administration.

[6] = cited from earlier work
[7] = system: CH2 FH4 and FH4 in breast cancer biopsies; assay: CH2 FH4 and FH4 levels in breast cancer biopsies during L-serine infusion after high-dose (6R,S)-leucovorin; type: in vivo, human; set-up: CH2 FH4 / FH4: unit not given here; details: patient two
Experimental: As noted previously (see pages 5-6) and mentioned in C. P. Spears, et al., Proc. Am. Soc. Clin. Oncol. 8:69 (1989), the inventors have used pharmacologic intervention to convert intracellular FH4 to CH2 FH4 in patients receiving high-dose reduced folate therapy combined with weekly i.v. bolus 5-FU, 450 mg/sq. m. The method used was administration of i.v. L-serine, 15.0 grams, over 1 hour after the end of overnight high-dose (6R,S)-leucovorin i.v. infusion.
In contrast to the data shown in Tables II and III, the inventors were able to also assay for intratumoral FH4 in addition to CH2 FH4 (this latter is also referred to as "FBC" in those Tables or Folate-Binding Capacity), at time points during this pharmacologic forcing of metabolism of FH4 to CH2 FH4 through the enzyme, serine hydroxymethyltransferase. This enzyme splits a carbon of L-serine to generate formaldehyde in the presence of FH4.
^a Minutes after initiation of 15.0 gram LSerine i.v. 60min infusion,
after end of overnight (6R,S)leucovorin highdose i.v. infusion.
^b Assays performed as described (C.P. Spears et al., Adv. Exp. Med.

[8] = 0 min (start of L-serine, after overnight leucovorin)

Structure (SMILES): Nc1nc2c(c(=O)[nH]1)N1CN(c3ccc(C(=O)N[C@@H](CCC(=O)O)C(=O)O)cc3)C[C@H]1CN2 [(6R)-CH2 FH4]
- Tumor volume ± SE ([1]; control 7.81): 12.58
- Tumor weight ± SE ([1]; control 7.93): 9.11
- Intracellular CH2 FH4 ([2]; 90 min exposure, control 0.04): 0.19 nmole/10^9 Cells
- Intracellular FH4 ([2]; 90 min exposure): 8.81 nmole/10^9 Cells
- % of maximal L. casei TS-[3H]FdUMP-folate ternary complex formation ([3]; maximal = using 6 mM formaldehyde): 11.8 ± 7.9%

Structure (SMILES): CN1c2c(nc(N)[nH]c2=O)NC[C@H]1CNc1ccc(C(=O)N[C@@H](CCC(=O)O)C(=O)O)cc1 [(6R,S)-MTHF, 5-methyl-(6R, S)-tetrahydrofolate]
- Intracellular FH4 ([2]; 16-hr exposure): 10.55 nmole/10^9 Cells

Structure (SMILES): Nc1nc2c(c(=O)[nH]1)N(C=O)[C@@H](CNc1ccc(C(=O)N[C@@H](CCC(=O)O)C(=O)O)cc1)CN2 [(6S)-LV]
- Intracellular FH4 ([2]; 16-hr exposure): 10.64 nmole/10^9 Cells

Structure (SMILES): Nc1nc2c(c(=O)[nH]1)N1CN(c3ccc(C(=O)N[C@@H](CCC(=O)O)C(=O)O)cc3)CC1CN2 (stereo partly shown) [CH2 FH4, 5,10-methylene-tetrahydrofolate]
- TS, % of Baseline ([4]; Week #1, 35 mg IV, 10 min): 212.4%
- Thymidylate synthase (TS) ([4]; Week #1, 35 mg IV, 10 min, baseline 5.77): 6.28 pmol/g
- TS, % of Baseline ([4]; Week #1, 35 mg IV, 20 min): 43.7%
- Thymidylate synthase (TS) ([4]; Week #1, 35 mg IV, 20 min, baseline 5.77): 2.26 pmol/g
- TS, % of Baseline ([4]; Week #1, 35 mg IV, 30 min): 114.1%
- Thymidylate synthase (TS) ([4]; Week #1, 35 mg IV, 30 min, baseline 5.77): 5.90 pmol/g
- TS, % of Baseline ([4]; Week #1, 35 mg IV, 24 hr): 122.2%
- Thymidylate synthase (TS) ([4]; Week #1, 35 mg IV, 24 hr, baseline 5.77): 6.32 pmol/g
- TS, % of Baseline ([4]; Week #2, 50 mg IV, 10 min): 181.7%
- Thymidylate synthase (TS) ([4]; Week #2, 50 mg IV, 10 min, baseline 5.64): 10.25 pmol/g
- TS, % of Baseline ([4]; Week #2, 50 mg IV, 20 min): 104.8%
- Thymidylate synthase (TS) ([4]; Week #2, 50 mg IV, 20 min, baseline 5.64): 5.91 pmol/g
- TS, % of Baseline ([4]; Week #2, 50 mg IV, 30 min): 35.8%
- Thymidylate synthase (TS) ([4]; Week #2, 50 mg IV, 30 min, baseline 5.64): 2.02 pmol/g
- TS, % of Baseline ([4]; Week #2, 50 mg IV, 40 min): 61.3%
- Thymidylate synthase (TS) ([4]; Week #2, 50 mg IV, 40 min, baseline 5.64): 3.46 pmol/g
- TS, % of Baseline ([5]; 10 min): 19.8%
- TS, % of Baseline ([5]; 20 min): 42.7%
- TS, % of Baseline ([5]; 40 min): 75.6%
- TS, % of Baseline ([5]; 60 min): 112.2%
- Thymidylate synthase (TS) ([5]; biopsy at 10 min): 0.26 pmol/g
- Thymidylate synthase (TS) ([5]; biopsy at 20 min): 0.56 pmol/g
- Thymidylate synthase (TS) ([5]; biopsy at 40 min): 0.99 pmol/g
- Thymidylate synthase (TS) ([5]; biopsy at 60 min): 1.47 pmol/g
- TS inhibition / decrease over baseline value ([5]; 10 min (first biopsy)): 80.2%
- TS inhibition ([5]; 20 min): 57.3%
- maximal binding, % of stoichiometric binding ([3]; 0.2M Tris pH 7.4, excess formaldehyde (6 mM)): 19.3%
- storage stability in solution ([6]; column-isolated, under argon at -80° C.): up to a year without decomposition
- stability in the presence of oxygen ([6]; solutions and powder, oxygen, catalyzed by light, acid, base, heavy metals): unstable

Structure (SMILES): Nc1nc2c(c(=O)[nH]1)N=C(CNc1ccc(C(=O)N[C@@H](CCC(=O)O)C(=O)O)cc1)CN2 [DHF, Dihydrofolate]
- Intracellular FH4 ([2]; 16-hr exposure): 7.10 nmole/10^9 Cells

Structure (SMILES): Nc1nc2c(c(=O)[nH]1)N(C=O)[C@H](CNc1ccc(C(=O)N[C@@H](CCC(=O)O)C(=O)O)cc1)CN2 [LV, (6R,S)-5-formyl-tetrahydrofolate]
- Ratio of FH4/CH2 FH4 ([7]; 0 min): 12.2
- CH2 FH4 [7, 8]: 0.194
- FH4 [7, 8]: 2.370

— US5376658A, “5,10-methylene-tetrahydrofolate as a modulator of a chemotherapeutic agent” (priority 1993, dated 1994)
